Among the data in the supplement of paper PMC10307832 are relative viability values, retold here.

What all share (test): relative viability (nuclei count vs DMSO), 5 days (fraction); higher = more cells survive
Compound in test [1]: CC(=O)Nc1cccc(-n2c(=O)n(C3CC3)c(=O)c3c(Nc4ccc(I)cc4F)n(C)c(=O)c(C)c32)c1 [Trametinib] + C[C@]1(O)C[C@@H](c2nc(-c3ccc4ccc(-c5ccccc5)nc4c3)c3c(N)nccn32)C1 [Linsitinib] (partner 1 µM)
A digest of the protocol: (§1)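 Dosing by pin tool came one day after lung cancer cell lines were seeded in 1536-well plates, using either one drug or a fixed anchor-drug dose plus five library-drug doses (not always all listed) in √10 steps. After 5 days, nuclei were counted on 4× images. Relative viability is treated-well nuclei count divided by vehicle-well nuclei count, and values are medians of duplicate plates.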

Compound in test [2]: CN1C=C(C2=CC=CC=C21)/C=C\3/C4=C(C=CC=N4)NC3=O + CC(C)C[C@H](NC(=O)[C@H](Cc1ccccc1)NC(=O)c1cnccn1)B(O)O [Bortezomib] (partner 0.002 µM)
The essentials: as §1

Compound in test [3]: CN1C=C(C2=CC=CC=C21)/C=C\3/C4=C(C=CC=N4)NC3=O + CC1(C)CCC(c2ccc(Cl)cc2)=C(CN2CCN(c3ccc(C(=O)NS(=O)(=O)c4ccc(N[C@H](CCN5CCOCC5)CSc5ccccc5)c(S(=O)(=O)C(F)(F)F)c4)cc3)CC2)C1 [Navitoclax] (partner 0.5 µM)
A digest of the protocol:
as §1

Compound in test [4]: CN1C=C(C2=CC=CC=C21)/C=C\3/C4=C(C=CC=N4)NC3=O + COc1cccc2cc(-c3nc([C@H]4CC[C@H](C(=O)O)CC4)n4ncnc(N)c34)[nH]c12 [OSI-027] (partner 0.5 µM)
A digest of the protocol:
as §1

As for UMC-11, the relative viability in test [1] (first compound 0.0025 µM) stood at 1.01; in test [1] (first compound 0.007906 µM), 1.04; in test [1] (first compound 0.025 µM) it was 0.929; in test [1] (first compound 0.07906 µM) it was 1.07; in test [1] (first compound 0.25 µM), 0.974; in test [2] (first compound 0.02 µM) it was 0.668. For the same cell line, the relative viability in test [2] (first compound 0.06325 µM) came to 0.263; in test [2] (first compound 0.2 µM) it was 0.572; in test [2] (first compound 0.6325 µM), 0.761; in test [2] (first compound 2 µM), 0.926; in test [3] (first compound 0.02 µM), 0.24; in test [3] (first compound 0.06325 µM), 0.318. For the same cell line, the relative viability in test [3] (first compound 0.2 µM) turned out to be 0.288; in test [3] (first compound 0.6325 µM) it was 0.362; in test [3] (first compound 2 µM), 0.391; in test [4] (first compound 0.02 µM) it was 0.513; in test [4] (first compound 0.06325 µM), 0.49; in test [4] (first compound 0.2 µM), 0.461. The values for the relative viability in test [4] (first compound 0.6325 µM) and in test [4] (first compound 2 µM) were 0.536 and 0.494, respectively.
